System: MV-4-11 cells
Assay: Gene expression microarray analysis (Affymetrix PrimeView) and GSEA
Type: cell-based, human
Set-up: RFU PODN (11730768_x_at) / Fold change /veh PODN (11730768_x_at) / RFU LINC00158 (11744669_a_at) / Fold change /veh LINC00158 (11744669_a_at) / RFU DUSP10 (11751237_a_at) / Fold change /veh DUSP10 (11751237_a_at) / RFU ID3 (11757404_x_at) / Fold change /veh ID3 (11757404_x_at) / RFU PLEKHG5 (11737974_s_at) / Fold change /veh PLEKHG5 (11737974_s_at) / RFU LRRC4B (11730491_at) / Fold change /veh LRRC4B (11730491_at) / RFU GIMAP4 (11747438_a_at) / Fold change /veh GIMAP4 (11747438_a_at) / RFU KRT8 (11758183_x_at) / Fold change /veh KRT8 (11758183_x_at) / RFU CNN1 (11734310_a_at) / Fold change /veh CNN1 (11734310_a_at) / RFU VPS37D (11726825_at) / Fold change /veh VPS37D (11726825_at) / RFU C10orf10 (11716522_x_at) / Fold change /veh C10orf10 (11716522_x_at) / RFU KIR2DL2 /// KIR2DL4 /// KIR2DL5A /// KIR2DL5B /// KIR2DS1 /// KIR2DS2 /// KIR2DS3 /// KIR2DS4 /// KIR3DL3 /// KIR3DL3 /// KIR3DS1 (11738374_at) / Fold change /veh KIR2DL2 /// KIR2DL4 /// KIR2DL5A /// KIR2DL5B /// KIR2DS1 /// KIR2DS2 /// KIR2DS3 /// KIR2DS4 /// KIR3DL3 /// KIR3DL3 /// KIR3DS1 (11738374_at) / RFU C1QL1 (11718748_at) / Fold change /veh C1QL1 (11718748_at) / RFU TMPRSS4 (11747572_a_at) / Fold change /veh TMPRSS4 (11747572_a_at) / RFU HAMP (11756126_x_at) / Fold change /veh HAMP (11756126_x_at) / RFU RNFT2 (11725882_a_at) / Fold change /veh RNFT2 (11725882_a_at) / RFU NR4A2 (11747474_a_at) / Fold change /veh NR4A2 (11747474_a_at) / RFU ABCC12 (11746883_a_at) / Fold change /veh ABCC12 (11746883_a_at) / RFU TMEM136 (11760407_x_at) / Fold change /veh TMEM136 (11760407_x_at) / RFU CLDN22 /// WWC2 (11732394_at) / Fold change /veh CLDN22 /// WWC2 (11732394_at) / RFU HLA-DPB1 (11760878_x_at) / Fold change /veh HLA-DPB1 (11760878_x_at) / RFU SPINT1 (11716480_a_at) / Fold change /veh SPINT1 (11716480_a_at) / RFU GAP43 (11754022_s_at) / Fold change /veh GAP43 (11754022_s_at) / RFU A4GNT (11735810_at) / Fold change /veh A4GNT (11735810_at) / RFU PRB3 (11715151_x_at) / Fold change /veh PRB3 (11715151_x_at) / RFU TUBB4B (11761932_at) / Fold change /veh TUBB4B (11761932_at) / RFU CAPN14 (11732068_a_at) / Fold change /veh CAPN14 (11732068_a_at) / RFU TMCC2 (11721928_a_at) / Fold change /veh TMCC2 (11721928_a_at) / RFU IRGQ (11745062_a_at) / Fold change /veh IRGQ (11745062_a_at) / RFU FAM174B (11720279_a_at) / Fold change /veh FAM174B (11720279_a_at) / RFU TMPRSS4 (11748680_a_at) / Fold change /veh TMPRSS4 (11748680_a_at) / RFU FAM212B (11763350_a_at) / Fold change /veh FAM212B (11763350_a_at) / RFU PLEKHG5 (11743358_a_at) / Fold change /veh PLEKHG5 (11743358_a_at) / RFU ZSCAN30 (11745921_a_at) / Fold change /veh ZSCAN30 (11745921_a_at) / RFU CMKLR1 (11741424_a_at) / Fold change /veh CMKLR1 (11741424_a_at) / RFU LOC101060620 /// MAPK8IP1 (11723275_at) / Fold change /veh LOC101060620 /// MAPK8IP1 (11723275_at) / RFU SPTSSB (11747773_x_at) / Fold change /veh SPTSSB (11747773_x_at) / RFU PRSS12 (11739890_at) / Fold change /veh PRSS12 (11739890_at) / RFU BIN1 (11741810_x_at) / Fold change /veh BIN1 (11741810_x_at) / RFU WNT11 (11732464_a_at) / Fold change /veh WNT11 (11732464_a_at) / RFU C10orf10 (11716521_a_at) / Fold change /veh C10orf10 (11716521_a_at) / RFU C5orf56 (11738089_at) / Fold change /veh C5orf56 (11738089_at) / RFU CYB561 (11721691_x_at) / Fold change /veh CYB561 (11721691_x_at) / RFU ANKRD19P (11752326_a_at) / Fold change /veh ANKRD19P (11752326_a_at) / RFU OR2T12 /// OR2T33 /// OR2T8 (11738714_s_at) / Fold change /veh OR2T12 /// OR2T33 /// OR2T8 (11738714_s_at) / RFU VCAN (11748164_a_at) / Fold change /veh VCAN (11748164_a_at) / RFU JSRP1 (11732532_at) / Fold change /veh JSRP1 (11732532_at) / RFU KRTAP10-11 (11738290_x_at) / Fold change /veh KRTAP10-11 (11738290_x_at) / RFU MYO3A (11730013_a_at) / Fold change /veh MYO3A (11730013_a_at) / RFU EBF3 (11725865_a_at) / Fold change /veh EBF3 (11725865_a_at) / RFU CAMK2N1 (11719241_x_at) / Fold change /veh CAMK2N1 (11719241_x_at) / RFU C5orf56 (11738088_a_at) / Fold change /veh C5orf56 (11738088_a_at) / RFU OLFML3 (11715873_a_at) / Fold change /veh OLFML3 (11715873_a_at) / RFU LOC100653217 /// NTM (11731650_a_at) / Fold change /veh LOC100653217 /// NTM (11731650_a_at) / RFU MAPK11 (11762145_a_at) / Fold change /veh MAPK11 (11762145_a_at) / RFU FIZ1 (11724087_x_at) / Fold change /veh FIZ1 (11724087_x_at) / RFU OASL (11726364_x_at) / Fold change /veh OASL (11726364_x_at) / RFU SOX15 (11748057_x_at) / Fold change /veh SOX15 (11748057_x_at) / RFU CD79A (11719716_a_at) / Fold change /veh CD79A (11719716_a_at) / RFU HIST1H1D (11736915_at) / Fold change /veh HIST1H1D (11736915_at) / RFU CASKIN2 (11723855_a_at) / Fold change /veh CASKIN2 (11723855_a_at) / RFU LOC730098 (11760151_x_at) / Fold change /veh LOC730098 (11760151_x_at) / RFU OR4N2 (11742367_at) / Fold change /veh OR4N2 (11742367_at) / RFU PRRT2 (11749266_a_at) / Fold change /veh PRRT2 (11749266_a_at) / RFU SNX32 (11753110_a_at) / Fold change /veh SNX32 (11753110_a_at) / RFU CDHR5 (11726645_a_at) / Fold change /veh CDHR5 (11726645_a_at) / RFU RCAN1 (11760418_a_at) / Fold change /veh RCAN1 (11760418_a_at) / RFU FAM167A (11723789_a_at) / Fold change /veh FAM167A (11723789_a_at) / RFU FAM26E (11764081_at) / Fold change /veh FAM26E (11764081_at) / RFU ISYNA1 (11749810_s_at) / Fold change /veh ISYNA1 (11749810_s_at) / RFU ACY1 (11761880_at) / Fold change /veh ACY1 (11761880_at) / RFU 11764098_at / Fold change /veh 11764098_at / RFU SAMD14 (11745864_x_at) / Fold change /veh SAMD14 (11745864_x_at) / RFU NPB (11741838_a_at) / Fold change /veh NPB (11741838_a_at) / RFU TMPRSS6 (11731388_a_at) / Fold change /veh TMPRSS6 (11731388_a_at) / RFU KRTAP10-2 (11738614_at) / Fold change /veh KRTAP10-2 (11738614_at) / RFU ARHGAP8 /// PRR5-ARHGAP8 (11727945_x_at) / Fold change /veh ARHGAP8 /// PRR5-ARHGAP8 (11727945_x_at) / RFU KRTAP5-7 /// NADSYN1 (11734609_at) / Fold change /veh KRTAP5-7 /// NADSYN1 (11734609_at) / RFU RASL12 (11751679_a_at) / Fold change /veh RASL12 (11751679_a_at) / RFU CDKN2B (11736163_a_at) / Fold change /veh CDKN2B (11736163_a_at) / RFU PRF1 (11729649_at) / Fold change /veh PRF1 (11729649_at) / RFU, ZNF638 /// ZNF638-IT1 / Fold change vs veh, ZNF638 /// ZNF638-IT1 / RFU, PANK3 / Fold change vs veh, PANK3 / RFU, SH3YL1 / Fold change vs veh, SH3YL1 / RFU, ZEB2 / Fold change vs veh, ZEB2 / RFU, NRIP1 / Fold change vs veh, NRIP1 / RFU, PTTG1IP / Fold change vs veh, PTTG1IP / RFU, CAPN2 / Fold change vs veh, CAPN2 / RFU, MED14 / Fold change vs veh, MED14 / RFU, SNORA58 / Fold change vs veh, SNORA58 / RFU, C1orf63 / Fold change vs veh, C1orf63 / RFU, LRRFIP1 / Fold change vs veh, LRRFIP1 / RFU, NDUFAF7 / Fold change vs veh, NDUFAF7 / RFU, SLC12A2 / Fold change vs veh, SLC12A2 / RFU, IBTK / Fold change vs veh, IBTK / RFU, ESF1 / Fold change vs veh, ESF1 / Fold change vs veh, TMEM50B / RFU, TAOK1 / Fold change vs veh, TAOK1 / RFU, ACBD3 / Fold change vs veh, ACBD3 / RFU, TMA16 / Fold change vs veh, TMA16 / RFU, RWDD3 / Fold change vs veh, RWDD3 / RFU, BCAT1 / Fold change vs veh, BCAT1 / RFU, EDEM3 / Fold change vs veh, EDEM3 / RFU, TMEM33 / Fold change vs veh, TMEM33 / RFU, WDR75 / Fold change vs veh, WDR75 / RFU, AHCTF1 / Fold change vs veh, AHCTF1 / RFU, TFRC / Fold change vs veh, TFRC / RFU, ZDHHC17 / Fold change vs veh, ZDHHC17 / RFU, NOM1 / Fold change vs veh, NOM1 / RFU, ARL8B / Fold change vs veh, ARL8B / RFU, ZBTB11 / Fold change vs veh, ZBTB11 / RFU, TAMM41 / Fold change vs veh, TAMM41 / RFU, KIAA1704 /// LOC100996395 / Fold change vs veh, KIAA1704 /// LOC100996395 / RFU, ING1 / Fold change vs veh, ING1 / RFU, TRMT61B / Fold change vs veh, TRMT61B / RFU, FUBP3 / Fold change vs veh, FUBP3 / RFU, TP53 / Fold change vs veh, TP53 / RFU, TNKS2 / Fold change vs veh, TNKS2 / RFU, ZFP14 / Fold change vs veh, ZFP14 / RFU, ACTR2 / Fold change vs veh, ACTR2 / RFU, PPP3R1 / Fold change vs veh, PPP3R1 / RFU, PIK3R1 / Fold change vs veh, PIK3R1 / RFU, HNRNPA1 / Fold change vs veh, HNRNPA1 / RFU, RNF170 / Fold change vs veh, RNF170 / RFU, ZNF28 / Fold change vs veh, ZNF28 / RFU, RNGTT / Fold change vs veh, RNGTT / RFU, OGT / Fold change vs veh, OGT / RFU, BRD1 / Fold change vs veh, BRD1 / RFU, MARS / Fold change vs veh, MARS / RFU, ZNF655 / Fold change vs veh, ZNF655 / RFU, FAHD1 / Fold change vs veh, FAHD1 / RFU, BDP1 / Fold change vs veh, BDP1 / RFU, LRRCC1 / Fold change vs veh, LRRCC1 / RFU, ARID1A / Fold change vs veh, ARID1A / RFU, ZNF146 / Fold change vs veh, ZNF146 / RFU, ZNF330 / Fold change vs veh, ZNF330 / RFU, GPN3 / Fold change vs veh, GPN3 / RFU, C9orf123 / Fold change vs veh, C9orf123 / RFU, N4BP2L2 / Fold change vs veh, N4BP2L2 / RFU, ARFIP1 / Fold change vs veh, ARFIP1 / RFU, FAM179B / Fold change vs veh, FAM179B / RFU, BCL10 / Fold change vs veh, BCL10 / RFU, UHRF1BP1L / Fold change vs veh, UHRF1BP1L / RFU, BET1 / Fold change vs veh, BET1 / RFU, CNOT2 / Fold change vs veh, CNOT2 / RFU, ZNF268 / Fold change vs veh, ZNF268 / Fold change vs veh, ZNF507 / RFU, DGCR2 / Fold change vs veh, DGCR2 / RFU, WDSUB1 / Fold change vs veh, WDSUB1 / Fold change vs veh, HSP90B1 /// MIR3652 / RFU, ADSS / Fold change vs veh, ADSS / RFU, GK / Fold change vs veh, GK / RFU, ZNF148 / Fold change vs veh, ZNF148 / RFU, TAF9 / Fold change vs veh, TAF9 / RFU, SLC1A5 / Fold change vs veh, SLC1A5 / RFU, SLMO2 / Fold change vs veh, SLMO2 / RFU, ABCC4 / Fold change vs veh, ABCC4 / RFU, LOC101060439 /// RAP1B / Fold change vs veh, LOC101060439 /// RAP1B / RFU, RFX7 / Fold change vs veh, RFX7 / RFU, GTPBP10 / Fold change vs veh, GTPBP10 / RFU, CNEP1R1 / Fold change vs veh, CNEP1R1 / RFU, BIVM-ERCC5 /// ERCC5 / Fold change vs veh, BIVM-ERCC5 /// ERCC5 / RFU, ILF3 / Fold change vs veh, ILF3 / RFU 11762660_at / Fold change /veh 11762660_at / RFU VCAN (11757783_s_at) / Fold change /veh VCAN (11757783_s_at) / RFU DDX43 (11728927_at) / Fold change /veh DDX43 (11728927_at) / RFU KRT8 (11758188_x_at) / Fold change /veh KRT8 (11758188_x_at) / RFU NKD1 (11759106_at) / Fold change /veh NKD1 (11759106_at) / RFU SRD5A1 (11742802_a_at) / Fold change /veh SRD5A1 (11742802_a_at) / RFU TPSAB1 /// TPSB2 (11721975_s_at) / Fold change /veh TPSAB1 /// TPSB2 (11721975_s_at) / RFU GSTM3 (11746129_a_at) / Fold change /veh GSTM3 (11746129_a_at) / RFU IL23R (11737362_x_at) / Fold change /veh IL23R (11737362_x_at) / RFU TMEM51 (11727254_a_at) / Fold change /veh TMEM51 (11727254_a_at) / RFU PIWIL2 (11732686_x_at) / Fold change /veh PIWIL2 (11732686_x_at) / RFU ORM1 (11744905_x_at) / Fold change /veh ORM1 (11744905_x_at) / RFU CCDC152 (11743942_at) / Fold change /veh CCDC152 (11743942_at) / RFU ECM1 (11717891_a_at) / Fold change /veh ECM1 (11717891_a_at) / RFU IL23R (11748794_a_at) / Fold change /veh IL23R (11748794_a_at) / RFU TNFAIP8L3 (11732012_x_at) / Fold change /veh TNFAIP8L3 (11732012_x_at) / RFU MBOAT4 (11741988_at) / Fold change /veh MBOAT4 (11741988_at) / RFU 11764193_at / Fold change /veh 11764193_at / RFU TMEM53 (11763286_at) / Fold change /veh TMEM53 (11763286_at) / RFU MAGEB2 (11727129_at) / Fold change /veh MAGEB2 (11727129_at) / RFU TMEM200A (11744735_a_at) / Fold change /veh TMEM200A (11744735_a_at) / RFU CCDC152 (11751479_a_at) / Fold change /veh CCDC152 (11751479_a_at) / RFU FAM211A (11726209_a_at) / Fold change /veh FAM211A (11726209_a_at) / RFU RGS16 (11746705_a_at) / Fold change /veh RGS16 (11746705_a_at) / RFU VCAN (11755009_s_at) / Fold change /veh VCAN (11755009_s_at) / RFU RHOB (11743442_s_at) / Fold change /veh RHOB (11743442_s_at) / RFU RGS16 (11720943_a_at) / Fold change /veh RGS16 (11720943_a_at) / RFU RGS16 (11720944_at) / Fold change /veh RGS16 (11720944_at) / RFU, VPS4B / Fold change vs veh, VPS4B / RFU, CREB1 / Fold change vs veh, CREB1 / RFU, DNAJC13 / Fold change vs veh, DNAJC13 / RFU, GNAQ / Fold change vs veh, GNAQ / RFU, CDK5R1 / Fold change vs veh, CDK5R1 / RFU, ZRANB3 / Fold change vs veh, ZRANB3 / RFU, CUL4A / Fold change vs veh, CUL4A / RFU, CCNY / Fold change vs veh, CCNY / RFU, UFL1 / Fold change vs veh, UFL1 / RFU, COG3 / Fold change vs veh, COG3 / RFU, DIAPH2 / Fold change vs veh, DIAPH2 / RFU, SKA2 / Fold change vs veh, SKA2 / RFU, AFF3 / Fold change vs veh, AFF3 / RFU, LMF1 / Fold change vs veh, LMF1 / RFU, IPO11 / Fold change vs veh, IPO11 / RFU, DFFB / Fold change vs veh, DFFB / RFU, FOXP1 / Fold change vs veh, FOXP1 / RFU, CARD8 / Fold change vs veh, CARD8 / RFU, STRN3 / Fold change vs veh, STRN3 / RFU, ADK / Fold change vs veh, ADK / RFU, RASSF2 / Fold change vs veh, RASSF2 / RFU, WIPF1 / Fold change vs veh, WIPF1 / RFU, LARP1B / Fold change vs veh, LARP1B / RFU, RASA1 / Fold change vs veh, RASA1 / RFU, RB1 / Fold change vs veh, RB1 / RFU, PPFIA1 / Fold change vs veh, PPFIA1 / RFU, MAT2A / Fold change vs veh, MAT2A / RFU, CCT5 / Fold change vs veh, CCT5 / RFU, WDR92 / Fold change vs veh, WDR92 / RFU, CUX1 / Fold change vs veh, CUX1 / RFU, TTC7A / Fold change vs veh, TTC7A / RFU, TMEM135 / Fold change vs veh, TMEM135 / RFU, DEPTOR / Fold change vs veh, DEPTOR / RFU, CPM / Fold change vs veh, CPM / RFU, DNAJB6 / Fold change vs veh, DNAJB6 / RFU, CACNA2D3 / Fold change vs veh, CACNA2D3 / RFU, DTX4 / Fold change vs veh, DTX4 / RFU, TFCP2 / Fold change vs veh, TFCP2 / RFU, GMCL1 /// GMCL1P1 / Fold change vs veh, GMCL1 /// GMCL1P1 / RFU, AEBP2 / Fold change vs veh, AEBP2 / RFU, SNHG1 /// SNORD22 /// SNORD25 /// SNORD26 /// SNORD27 /// SNORD28 /// SNORD29 /// SNORD31 / Fold change vs veh, SNHG1 /// SNORD22 /// SNORD25 /// SNORD26 /// SNORD27 /// SNORD28 /// SNORD29 /// SNORD31 / Fold change (Aza/veh), C12orf56 (ProbeSet 11735607_a_at) / Fold change (ACY-1035/veh), C12orf56 (ProbeSet 11735607_a_at) / Fold change (Aza/veh), FGFR1OP (ProbeSet 11751329_s_at) / Fold change (ACY-1035/veh), FGFR1OP (ProbeSet 11751329_s_at) / Fold change (Aza/veh), VPS36 (ProbeSet 11739960_a_at) / Fold change (ACY-1035/veh), VPS36 (ProbeSet 11739960_a_at) / RFU SYPL1 (11715823_x_at) / Fold change /veh SYPL1 (11715823_x_at) / RFU IGFBP7 (11715501_s_at) / Fold change /veh IGFBP7 (11715501_s_at) / RFU REEP3 (11722064_at) / Fold change /veh REEP3 (11722064_at) / RFU IGLL1 (11728026_x_at) / Fold change /veh IGLL1 (11728026_x_at): dose or concentration left out as unconfirmed
Settings: ProbeSet 11734937_a_at; LIST B

Nc1ncn([C@@H]2O[C@H](CO)[C@@H](O)[C@H]2O)c(=O)n1 [azacitidine]
RFU, CNOT2: 887.01 RFU

Reference: PMC5218480 (PLoS ONE, 2017)
